Measurements from ChEMBL document CHEMBL3045297, “Synthesis and antifungal activity of 2-azetidinonyl-5-(2-benzoylphenoxy)methyl-1,3,4-oxadiazoles against seed-borne pathogens of Eleusine coracana (L.) Gaertn” (2009).

Experiments:
Assay type in all cases: functional
Eleusine coracana [1] = experiment: Phytostimulatory activity in Eleusine coracana (finger mellet) seedlings assessed as vigour index at 1 g/L (reference value: 567 +/- 0.5 no unit)
Eleusine coracana [2] = experiment: Induction of seed germination in Eleusine coracana (finger mellet) at 20 g/L (reference value: 81 +/- 0.40%)
Eleusine coracana [3] = experiment: Induction of seed germination in Eleusine coracana (finger mellet) at 40 g/L (reference value: 81 +/- 0.40%)
Eleusine coracana [4] = experiment: Induction of seed germination in Eleusine coracana (finger mellet) at 10 g/L (reference value: 81 +/- 0.40%)
Eleusine coracana [5] = experiment: Induction of seed germination in Eleusine coracana (finger mellet) at 1 g/L (reference value: 81 +/- 0.40%)
Pyricularia grisea [6] = experiment: Antifungal activity against Magnaporthe grisea infected finger millet seed assessed as fungal occurrence at 40 g/L after 1 week by stereoscopic analysis (reference value: 12.5 +/- 0.35%)
Pyricularia grisea [7] = experiment: Antifungal activity against Magnaporthe grisea infected finger millet seed assessed as fungal occurrence at 20 g/L after 1 week by stereoscopic analysis (reference value: 12.5 +/- 0.35%)
Pyricularia grisea [8] = experiment: Antifungal activity against Magnaporthe grisea infected finger millet seed assessed as fungal occurrence at 10 g/L after 1 week by stereoscopic analysis (reference value: 12.5 +/- 0.35%)
Pyricularia grisea [9] = experiment: Antifungal activity against Magnaporthe grisea infected finger millet seed assessed as fungal occurrence at 1 g/L after 1 week by stereoscopic analysis (reference value: 12.5 +/- 0.35%)
Bipolaris setariae [10] = experiment: Antifungal activity against Bipolaris setariae infected finger millet seed assessed as fungal occurrence at 40 g/L after 1 week by stereoscopic analysis (reference value: 18 +/- 0.40%)
Bipolaris setariae [11] = experiment: Antifungal activity against Bipolaris setariae infected finger millet seed assessed as fungal occurrence at 20 g/L after 1 week by stereoscopic analysis (reference value: 18 +/- 0.40%)
Bipolaris setariae [12] = experiment: Antifungal activity against Bipolaris setariae infected finger millet seed assessed as fungal occurrence at 10 g/L after 1 week by stereoscopic analysis (reference value: 18 +/- 0.40%)
Bipolaris setariae [13] = experiment: Antifungal activity against Bipolaris setariae infected finger millet seed assessed as fungal occurrence at 1 g/L after 1 week by stereoscopic analysis (reference value: 18 +/- 0.40%)
Eleusine coracana [14] = experiment: Phytostimulatory activity in Eleusine coracana (finger mellet) seedlings assessed as vigour index at 20 g/L (reference value: 567 +/- 0.5 no unit)
Eleusine coracana [15] = experiment: Phytostimulatory activity in Eleusine coracana (finger mellet) seedlings assessed as vigour index at 40 g/L (reference value: 567 +/- 0.5 no unit)
Eleusine coracana [16] = experiment: Phytostimulatory activity in Eleusine coracana (finger mellet) seedlings assessed as vigour index at 10 g/L (reference value: 567 +/- 0.5 no unit)

O=C(c1ccccc1)c1cc(Cl)ccc1OCc1nnc(N2C(=O)C(Cl)C2c2cccc(Br)c2)o1 (stereo unspecified)
Vigour_index (Eleusine coracana [1]): 544 | Activity (Eleusine coracana [2]): 83% | Activity (Eleusine coracana [3]): 86% | Activity (Eleusine coracana [4]): 83% | Activity (Eleusine coracana [5]): 81% | Activity (Pyricularia grisea [6]): 3% | Activity (Pyricularia grisea [7]): 4% | Activity (Pyricularia grisea [8]): 5% | Activity (Pyricularia grisea [9]): 6% | Activity (Bipolaris setariae [10]): 6% | Activity (Bipolaris setariae [11]): 7% | Activity (Bipolaris setariae [12]): 10% | Activity (Bipolaris setariae [13]): 11% | Vigour_index (Eleusine coracana [14]): 620 | Vigour_index (Eleusine coracana [15]): 641 | Vigour_index (Eleusine coracana [16]): 585

Cc1ccc(C(=O)c2cc(C)ccc2OCc2nnc(N3C(=O)C(Cl)C3c3cccc(Br)c3)o2)cc1 (stereo unspecified)
Vigour_index (Eleusine coracana [1]): 594 | Activity (Eleusine coracana [2]): 86% | Activity (Eleusine coracana [3]): 83% | Activity (Eleusine coracana [4]): 82% | Activity (Eleusine coracana [5]): 80% | Activity (Pyricularia grisea [6]): 1% | Activity (Pyricularia grisea [7]): 1.5% | Activity (Pyricularia grisea [8]): 4% | Activity (Pyricularia grisea [9]): 4% | Activity (Bipolaris setariae [10]): 1.5% | Activity (Bipolaris setariae [11]): 2.5% | Activity (Bipolaris setariae [12]): 6% | Activity (Bipolaris setariae [13]): 14% | Vigour_index (Eleusine coracana [14]): 680 | Vigour_index (Eleusine coracana [15]): 659 | Vigour_index (Eleusine coracana [16]): 633

Cc1ccc(OCc2nnc(N3C(=O)C(Cl)C3c3cccc(Br)c3)o2)c(C(=O)c2ccc(Cl)cc2)c1 (stereo unspecified)
Vigour_index (Eleusine coracana [1]): 588 | Activity (Eleusine coracana [2]): 85% | Activity (Eleusine coracana [3]): 87% | Activity (Eleusine coracana [4]): 85% | Activity (Eleusine coracana [5]): 81% | Activity (Pyricularia grisea [6]): 2% | Activity (Pyricularia grisea [7]): 3% | Activity (Pyricularia grisea [8]): 3% | Activity (Pyricularia grisea [9]): 4% | Activity (Bipolaris setariae [10]): 4.5% | Activity (Bipolaris setariae [11]): 5% | Activity (Bipolaris setariae [12]): 9% | Activity (Bipolaris setariae [13]): 11% | Vigour_index (Eleusine coracana [14]): 645 | Vigour_index (Eleusine coracana [15]): 693 | Vigour_index (Eleusine coracana [16]): 611

Cc1ccc(OCc2nnc(N3C(=O)C(Cl)C3c3cccc(Br)c3)o2)c(C(=O)c2cccc(Cl)c2)c1 (stereo unspecified)
Vigour_index (Eleusine coracana [1]): 581 | Activity (Eleusine coracana [2]): 82% | Activity (Eleusine coracana [3]): 80% | Activity (Eleusine coracana [4]): 80% | Activity (Eleusine coracana [5]): 80% | Activity (Pyricularia grisea [6]): 4.5% | Activity (Pyricularia grisea [7]): 4.5% | Activity (Pyricularia grisea [8]): 3.5% | Activity (Pyricularia grisea [9]): 5% | Activity (Bipolaris setariae [10]): 6% | Activity (Bipolaris setariae [11]): 2.5% | Activity (Bipolaris setariae [12]): 4.5% | Activity (Bipolaris setariae [13]): 3.5% | Vigour_index (Eleusine coracana [14]): 639 | Vigour_index (Eleusine coracana [15]): 630 | Vigour_index (Eleusine coracana [16]): 590

O=C(c1ccccc1)c1ccc(Br)cc1OCc1nnc(N2C(=O)C(Cl)C2c2cccc(Br)c2)o1 (stereo unspecified)
Vigour_index (Eleusine coracana [1]): 572 | Activity (Eleusine coracana [2]): 86% | Activity (Eleusine coracana [3]): 83% | Activity (Eleusine coracana [4]): 86% | Activity (Eleusine coracana [5]): 81% | Activity (Pyricularia grisea [6]): 2.5% | Activity (Pyricularia grisea [7]): 3.5% | Activity (Pyricularia grisea [8]): 3.5% | Activity (Pyricularia grisea [9]): 4% | Activity (Bipolaris setariae [10]): 2.5% | Activity (Bipolaris setariae [11]): 3.5% | Activity (Bipolaris setariae [12]): 4.5% | Activity (Bipolaris setariae [13]): 13.5% | Vigour_index (Eleusine coracana [14]): 655 | Vigour_index (Eleusine coracana [15]): 663 | Vigour_index (Eleusine coracana [16]): 615

COc1ccc(C(=O)c2cc(C)ccc2OCc2nnc(N3C(=O)C(Cl)C3c3cccc(Br)c3)o2)cc1 (stereo unspecified)
Vigour_index (Eleusine coracana [1]): 626 | Activity (Eleusine coracana [2]): 90% | Activity (Eleusine coracana [3]): 84% | Activity (Eleusine coracana [4]): 88% | Activity (Eleusine coracana [5]): 85% | Activity (Pyricularia grisea [6]): 1% | Activity (Pyricularia grisea [7]): 1% | Activity (Pyricularia grisea [8]): 2.5% | Activity (Pyricularia grisea [9]): 3.5% | Activity (Bipolaris setariae [10]): 2% | Activity (Bipolaris setariae [11]): 2% | Activity (Bipolaris setariae [12]): 2.5% | Activity (Bipolaris setariae [13]): 3.5% | Vigour_index (Eleusine coracana [14]): 706 | Vigour_index (Eleusine coracana [15]): 688 | Vigour_index (Eleusine coracana [16]): 658

O=C(c1cccc(Cl)c1)c1cc(Cl)ccc1OCc1nnc(N2C(=O)C(Cl)C2c2cccc(Br)c2)o1 (stereo unspecified)
Vigour_index (Eleusine coracana [1]): 622 | Activity (Eleusine coracana [2]): 89% | Activity (Eleusine coracana [3]): 90% | Activity (Eleusine coracana [4]): 86% | Activity (Eleusine coracana [5]): 85% | Activity (Pyricularia grisea [6]): 0.5% | Activity (Pyricularia grisea [7]): 0.5% | Activity (Pyricularia grisea [8]): 1% | Activity (Pyricularia grisea [9]): 2% | Activity (Bipolaris setariae [10]): 0.5% | Activity (Bipolaris setariae [11]): 0.5% | Activity (Bipolaris setariae [12]): 2% | Activity (Bipolaris setariae [13]): 2.5% | Vigour_index (Eleusine coracana [14]): 711 | Vigour_index (Eleusine coracana [15]): 700 | Vigour_index (Eleusine coracana [16]): 668

Cc1cc(OCc2nnc(N3C(=O)C(Cl)C3c3cccc(Br)c3)o2)c(C(=O)c2ccccc2)cc1Cl (stereo unspecified)
Vigour_index (Eleusine coracana [1]): 661 | Activity (Eleusine coracana [2]): 89% | Activity (Eleusine coracana [3]): 82% | Activity (Eleusine coracana [4]): 86% | Activity (Eleusine coracana [5]): 86% | Activity (Pyricularia grisea [6]): 0% | Activity (Pyricularia grisea [7]): 1% | Activity (Pyricularia grisea [8]): 2% | Activity (Pyricularia grisea [9]): 3% | Activity (Bipolaris setariae [10]): 2% | Activity (Bipolaris setariae [11]): 2% | Activity (Bipolaris setariae [12]): 1% | Activity (Bipolaris setariae [13]): 2% | Vigour_index (Eleusine coracana [14]): 715 | Vigour_index (Eleusine coracana [15]): 656 | Vigour_index (Eleusine coracana [16]): 677

Cc1ccc(OCc2nnc(N3C(=O)C(Cl)C3c3cccc(Br)c3)o2)c(C(=O)c2ccccc2Cl)c1 (stereo unspecified)
Vigour_index (Eleusine coracana [1]): 645 | Activity (Eleusine coracana [2]): 86% | Activity (Eleusine coracana [3]): 89% | Activity (Eleusine coracana [4]): 84% | Activity (Eleusine coracana [5]): 82% | Activity (Pyricularia grisea [6]): 1% | Activity (Pyricularia grisea [7]): 2% | Activity (Pyricularia grisea [8]): 3% | Activity (Pyricularia grisea [9]): 3.5% | Activity (Bipolaris setariae [10]): 2% | Activity (Bipolaris setariae [11]): 2% | Activity (Bipolaris setariae [12]): 3.5% | Activity (Bipolaris setariae [13]): 4% | Vigour_index (Eleusine coracana [14]): 754 | Vigour_index (Eleusine coracana [15]): 692 | Vigour_index (Eleusine coracana [16]): 674

Cc1ccc(OCc2nnc(N3C(=O)C(Cl)C3c3cccc(Br)c3)o2)c(C(=O)c2ccccc2)c1 (stereo unspecified)
Vigour_index (Eleusine coracana [1]): 565 | Activity (Eleusine coracana [2]): 84% | Activity (Eleusine coracana [3]): 86% | Activity (Eleusine coracana [4]): 81% | Activity (Eleusine coracana [5]): 80% | Activity (Pyricularia grisea [6]): 2% | Activity (Pyricularia grisea [7]): 2.5% | Activity (Pyricularia grisea [8]): 3.5% | Activity (Pyricularia grisea [9]): 12% | Activity (Bipolaris setariae [10]): 1% | Activity (Bipolaris setariae [11]): 4.5% | Activity (Bipolaris setariae [12]): 6% | Activity (Bipolaris setariae [13]): 15% | Vigour_index (Eleusine coracana [14]): 589 | Vigour_index (Eleusine coracana [15]): 620 | Vigour_index (Eleusine coracana [16]): 569

COC(=O)Nc1nc2ccccc2[nH]1 [CARBENDAZIM]
Vigour_index (Eleusine coracana [1]): 567 | Activity (Eleusine coracana [2]): 85% | Activity (Eleusine coracana [3]): 87% | Activity (Eleusine coracana [4]): 84% | Activity (Eleusine coracana [5]): 82% | Activity (Pyricularia grisea [6]): 1% | Activity (Pyricularia grisea [7]): 1% | Activity (Pyricularia grisea [8]): 1.5% | Activity (Pyricularia grisea [9]): 1.5% | Activity (Bipolaris setariae [10]): 2% | Activity (Bipolaris setariae [11]): 2% | Activity (Bipolaris setariae [12]): 3% | Activity (Bipolaris setariae [13]): 3% | Vigour_index (Eleusine coracana [14]): 612 | Vigour_index (Eleusine coracana [15]): 621 | Vigour_index (Eleusine coracana [16]): 579
